Measurements: ChEMBL document CHEMBL1126674, “S-adenosylmethionine decarboxylase inhibitors: new aryl and heteroaryl analogues of methylglyoxal bis(guanylhydrazone)” (J Med Chem, 1993)
Calls of active or inactive are those of the source. The rule behind the calls is not given here.

What was measured:
T-24 = test: Antiproliferative activity against human T24 bladder carcinoma cells; type: functional, cell-based
[1] = target: T1, Ornithine decarboxylase (Rattus norvegicus) (UniProt P09057); test: Evaluated for inhibition of rat liver ornithine decarboxylase (ODC) at concentrations of 50 uM; No inhibition
T1 sequence (whole entry): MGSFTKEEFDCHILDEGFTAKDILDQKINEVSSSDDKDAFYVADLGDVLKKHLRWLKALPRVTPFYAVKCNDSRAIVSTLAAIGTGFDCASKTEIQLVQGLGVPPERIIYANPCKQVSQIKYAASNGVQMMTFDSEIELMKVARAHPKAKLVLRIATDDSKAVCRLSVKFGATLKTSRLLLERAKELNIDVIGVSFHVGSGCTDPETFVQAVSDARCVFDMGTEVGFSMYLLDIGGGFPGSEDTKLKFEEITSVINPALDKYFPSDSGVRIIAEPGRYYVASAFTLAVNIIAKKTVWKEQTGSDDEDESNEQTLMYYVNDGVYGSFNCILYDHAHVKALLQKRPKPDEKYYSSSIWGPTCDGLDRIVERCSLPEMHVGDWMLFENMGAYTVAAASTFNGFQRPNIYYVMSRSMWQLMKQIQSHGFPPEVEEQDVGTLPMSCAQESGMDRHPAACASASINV

[2] = target: T2, S-adenosylmethionine decarboxylase proenzyme (Rattus norvegicus, UniProt P17708); test: Inhibitory concentration of compound against S-Adenosyl-methionine decarboxylase (SAMDC) from rat liver
T2 sequence (P17708 whole entry): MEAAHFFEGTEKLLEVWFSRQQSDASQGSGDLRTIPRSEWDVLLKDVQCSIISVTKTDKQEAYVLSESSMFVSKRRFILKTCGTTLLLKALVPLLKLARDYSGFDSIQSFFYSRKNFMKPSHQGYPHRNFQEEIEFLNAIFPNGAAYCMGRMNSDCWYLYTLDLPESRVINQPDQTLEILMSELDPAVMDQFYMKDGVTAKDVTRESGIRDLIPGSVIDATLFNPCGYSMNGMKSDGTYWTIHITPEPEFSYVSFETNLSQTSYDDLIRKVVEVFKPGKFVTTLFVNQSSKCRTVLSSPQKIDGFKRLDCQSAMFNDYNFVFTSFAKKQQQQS

[3] = target: T3, Diamine oxidase [copper-containing] (Rattus norvegicus, UniProt P36633); test: In vitro inhibition of Diamine oxidase (DAO) from rat small intestine.; type: tissue-based
T3 sequence (P36633 whole entry): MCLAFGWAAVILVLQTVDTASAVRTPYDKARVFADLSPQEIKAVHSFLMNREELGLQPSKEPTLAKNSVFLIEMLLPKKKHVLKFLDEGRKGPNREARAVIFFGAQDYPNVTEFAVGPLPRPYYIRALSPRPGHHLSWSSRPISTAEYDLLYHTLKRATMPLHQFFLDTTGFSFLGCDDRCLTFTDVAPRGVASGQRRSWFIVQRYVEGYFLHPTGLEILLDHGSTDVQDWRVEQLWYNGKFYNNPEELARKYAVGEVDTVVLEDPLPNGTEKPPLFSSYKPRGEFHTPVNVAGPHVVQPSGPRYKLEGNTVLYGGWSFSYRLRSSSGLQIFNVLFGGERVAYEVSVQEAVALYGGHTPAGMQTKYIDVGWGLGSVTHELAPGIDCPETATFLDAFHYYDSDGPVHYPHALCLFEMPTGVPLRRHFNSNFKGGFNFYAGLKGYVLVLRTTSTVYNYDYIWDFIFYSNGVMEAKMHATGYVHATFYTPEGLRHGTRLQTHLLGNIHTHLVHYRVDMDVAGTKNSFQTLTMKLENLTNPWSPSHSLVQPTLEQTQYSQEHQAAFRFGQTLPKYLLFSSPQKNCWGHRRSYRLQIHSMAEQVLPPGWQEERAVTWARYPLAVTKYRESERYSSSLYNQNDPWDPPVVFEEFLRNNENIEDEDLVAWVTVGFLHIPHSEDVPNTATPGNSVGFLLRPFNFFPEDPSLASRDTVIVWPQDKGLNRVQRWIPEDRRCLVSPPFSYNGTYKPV

Structure (SMILES) | IC50 (T-24) | inhibition [1] | IC50 [2] | IC50 [3]
N=C(NO)N/N=C/c1cccc(C(=N)N)n1 | 32.9 µM | inactive | 0.24 µM | 7.5 µM
N=C(N)N/N=C/c1cccc(C(=N)NO)n1 | > 119 µM | inactive | 25 µM | > 100 µM
C/C(=N\N=C(N)N)c1cccc(C(=N)N)c1 | 118 µM | inactive | 0.066 µM | 2.7 µM
N=C(N)c1ccnc(-c2cc(C(=N)N)ccn2)c1 | > 143 µM | inactive | 3.1 µM | –
CCCCNC(=N)c1cccc(/C=N/N=C(N)N)c1 | > 28.5 µM | inactive | > 50 µM | 5 µM
N=C(NO)N/N=C/c1cccc(C(=N)N)c1 | 14.1 µM | inactive | 0.092 µM | 20 µM
N=C(N)N/N=C/c1cccc(C(=N)N)c1 | 9.1 µM | inactive | 0.036 µM | 5.6 µM
N=C(N)N/N=C/c1ccnc(C(=N)N)c1 | > 180 µM | inactive | 0.33 µM | 3.2 µM
N=C(N)c1cc(-c2ccnc(C(=N)N)c2)ccn1 | > 151 µM | inactive | 0.18 µM | 12.9 µM
N=C(N/N=C/c1cccc(C(=N)N)n1)N/N=C/c1cccc(C(=N)N)n1 | 49.8 µM | inactive | 0.12 µM | 0.76 µM
N=C(NN)N/N=C/c1cccc(C(=N)N)n1 | 83.6 µM | inactive | 0.67 µM | 1.66 µM
N=C(N)N/N=C/c1cccc(C(=N)N)n1 | 10.1 µM | inactive | 0.09 µM | 0.87 µM
CC/C(=N\N=C(N)N)c1cccc(C(=N)N)c1 | > 152 µM | inactive | 0.088 µM | 15 µM
N=C(N)c1cccc(/C=N/N=C(\N)N/N=C/c2cccc(C(=N)N)c2)c1 | > 101 µM | inactive | 0.061 µM | 0.83 µM
CCCCNC(=N)N/N=C/c1cccc(C(=N)N)c1 | > 26.8 µM | inactive | 0.16 µM | 2.8 µM
N=C(N)N/N=C/c1cccc(C(N)=O)c1 | > 184 µM | inactive | 20 µM | > 100 µM
N=C(N)c1cccc(-c2cccc(C(=N)N)c2)c1 | > 160 µM | inactive | 0.6 µM | –
N=C(N)c1cccc(-c2ccnc(C(=N)N)n2)c1 | 68.2 µM | inactive | 0.006 µM | 10 µM
CC(/C=N/NC(=N)N)=N\NC(=N)N [MITOGUAZONE] | 1.1 µM | inactive | – | 1.5 µM
N=C(N)N/N=C/c1ccnc(C(=N)N)n1 | > 168 µM | inactive | 0.53 µM | 8.05 µM
N=C(N)N/N=C/c1nccc(C(=N)N)n1 | > 126 µM | inactive | 11 µM | 3.4 µM
N=C(NN)c1cccc(/C=N/N=C(N)N)n1 | 60.5 µM | inactive | 0.084 µM | 19 µM
N=C(NN)N/N=C/c1cccc(C(=N)N)c1 | 25 µM | inactive | 0.21 µM | 0.87 µM
N=C(N)c1cccc(-c2cccc(C(=N)N)n2)n1 | 1.1 µM | inactive | 0.006 µM | 240 µM
